Values joined by “and” are separate entries in the source; they are usually repeats but may differ in a detail not shown here. Equal entries are not always repeated.
Experiments:
[1] = test system: Fusarium nivale (var. majus); assay: In vivo preventive test on Fusarium nivale (wheat); details: 500 ppm of active ingredient, evaluated 5 days after inoculation
Text: (§1) To test for preventive activity, young plants are sprayed with the preparation of active compound or active compound combination at the stated rate of application.

Pyrenophora teres = assay: In vivo preventive test on Pyrenophora teres (barley); details: 500 ppm of active ingredient, evaluated 7-9 days after inoculation
Text: One day after this treatment, the plants are inoculated with an aqueous spore suspension of Pyrenophora teres.

Botrytis cinerea = assay: In vivo preventive test on Botrytis cinerea (beans)
Text: To test for preventive activity, young plants are sprayed with the preparation of active compound. After the spray coating has dried on, 2 small pieces of agar covered with growth of Botrytis cinerea are placed on each leaf.

Alternaria solani = assay: In vivo preventive test on Alternaria solani (tomato); details: 500 ppm of active ingredient, evaluated 7 days after inoculation
Text: One day after this treatment, the plants are inoculated with an aqueous spore suspension of Alternaria solani.

Leptosphaeria nodorum = assay: In vivo preventive test on Leptosphaeria nodorum (wheat); details: 500 ppm of active ingredient, evaluated 7-9 days after inoculation
Text: One day after this treatment, the plants are inoculated with an aqueous spore suspension of Leptosphaeria nodorum.

Uromyces appendiculatus = assay: In vivo preventive test on Uromyces appendiculatus (beans); details: 100 ppm of active ingredient, evaluated 10 days after inoculation
Phakopsora pachyrhizi = assay: In vivo protective test on Phakopsora pachyrhizi (soybeans); details: dose 250 ppm of active ingredient, evaluated 11 days after inoculation
[2] = logP by HPLC on reversed-phase column (C 18), EEC Directive 79/831 Annex V.A8; type: physicochemical
Method: In table 1, the logP values were determined in accordance with EEC Directive 79/831 Annex V.A8 by HPLC (High Performance Liquid Chromatography) on a reversed-phase column (C 18), using the method described below: Temperature: 40° C.; […]

Sphaerotheca fuliginea = assay: In vivo preventive test on Sphaerotheca fuliginea (cucumber); details: 500 ppm of active ingredient, evaluated 7 days after inoculation
Text: One day after this treatment, the plants are inoculated with an aqueous spore suspension of Sphaerotheca fuliginea.

Septoria tritici = assay: In vivo preventive test on Septoria tritici (wheat); details: 500 ppm of active ingredient, evaluated 21 days after inoculation
Text: as §1

Venturia inaequalis = assay: In vivo preventive test on Venturia inaequalis (apple scab); details: 100 ppm of active ingredient, evaluated 10 days after inoculation
aflatoxines production = assay: microbe, parasite or virus in culture; type: cell-based, Aspergillus parasiticus; details: 50 μM
[3] = test system: Blumeria graminis f.sp. hordei; assay: In vivo preventive test on Blumeria graminis (barley); details: 500 ppm of active ingredient, evaluated 7 days after inoculation
Text: as §1

Puccinia triticina = assay: In vivo preventive test on Puccinia triticina (wheat); details: evaluated 8 days after inoculation; for Efficacy: dose 500 ppm of active ingredient
Fusarium graminearum = assay: microbe, parasite or virus in culture; type: cell-based; details: 50 μM
[4] = test system: Fusarium nivale (var. majus); assay: In vivo curative test on Fusarium nivale (wheat); details: 500 ppm of active ingredient, evaluated 5 days after inoculation
[5] = preventive, beans, 100 ppm of active ingredient, lesion size 2 days after inoculation

Row | Structure (SMILES) | Efficacy [1] | Efficacy (Pyrenophora teres) | Efficacy (Botrytis cinerea; [5]) | Efficacy (Alternaria solani) | Efficacy (Leptosphaeria nodorum) | Efficacy (Uromyces appendiculatus) | Efficacy (Phakopsora pachyrhizi) | logP [2] | Efficacy (Sphaerotheca fuliginea) | Efficacy (Septoria tritici) | Efficacy (Venturia inaequalis) | % Inhibition of Aflatoxin at 50 μM (aflatoxines production) | Efficacy [3] | Efficacy (Puccinia triticina) | % Inhibition of fungal growth at 50 μM (Fusarium graminearum) | Efficacy [4] | Efficacy (protection) (Puccinia triticina; preventive, 500 ppm of active ingredient) | Efficacy (Botrytis cinerea; dose 500 ppm of active ingredient, table K10) | Efficacy (Botrytis cinerea; preventive, beans, 500 ppm of active ingredient, lesion size 2 days after inoculation)
1 | Cn1nc(C(F)F)c(C(=O)N(C[Si](C)(C)c2ccc(Cl)cc2Cl)C2CC2)c1F [Example 238] | 83% | 100% | 100% | 94% | 100% | 100% | 85% | 4.78 | 98% | 100% | 100% | 100% | 100% | 100% | 100% | – | – | – | –
2 | COC(CNC(=O)c1c(C(F)F)nn(C)c1F)c1ccc(Cl)cc1Cl (stereo not shown) [Example 75] | – | 100% | 95% | – | – | – | – | 3.25 | 80% | 100% | 95% | 100% | 100% | – | 100% | 86% | – | – | –
3 | Cn1nc(C(F)F)c(C(=O)N(C[Si](C)(C)c2ccccc2Cl)C2CC2)c1F [Example 231] | 83% | 100% | 99% | 94% | 100% | 100% | 80% | 4.13 | 100% | 100% | 99% | 100% | 100% | 100% | 100% | – | – | – | –
4 | CCC(NC(=O)c1c(C(F)F)nn(C)c1Cl)C(OC)c1ccc(Cl)cc1Cl (mixture of isomers) [Example 76] | – | 100% | 72% | 95% | – | – | – | – | 93% | 100% | 100% | 100% | 100% | – | 100% | 86% | – | – | –
5 | COC(CNC(=O)c1c(C(F)F)nn(C)c1Cl)c1ccc(Cl)cc1Cl (stereo not shown) [Example 74] | – | 95% | 93% | – | – | – | – | 3.48 | 75% | 100% | 100% | 100% | 100% | – | 100% | 100% | – | – | –
6 | COC(c1cc(Cl)cc(Cl)c1)C(C)NC(=O)c1c(C(F)F)nn(C)c1Cl (mixture of isomers) [Example 108] | – | 100% | – | 90% | – | 100% | – | – | – | 100% | 100% | 100% | – | 100% | 100% | 100% | – | – | –
7 | CCC(NC(=O)c1c(C(F)F)nn(C)c1F)C(OC)c1ccc(Cl)cc1Cl (stereo not shown) [Example 77] | – | 80% | 97% | 100% | 95% | – | – | 3.94 | 95% | 100% | 100% | 100% | 100% | – | 100% | 100% | – | – | –
8 | COC(c1cc(Cl)cc(Cl)c1)C(C)NC(=O)c1c(C(F)F)nn(C)c1F (mixture of isomers) [Example 109] | – | 100% | – | 95% | – | – | – | – | 85% | 100% | 99% | 100% | 100% | – | 100% | 100% | – | – | –
9 | Cn1nc(C(F)F)c(C(=O)N(C[Si](C)(C)c2cccc(Cl)c2)C2CC2)c1F [Example 235] | 100% | 100% | 99% | 100% | 100% | 100% | 100% | 4.18 | 95% | 100% | 100% | 100% | 94% | 100% | 100% | – | – | – | –
10 | Cn1nc(C(F)F)c(C(=O)N(C2CC2)C2CCCC2c2ccc(Cl)cc2Cl)c1F (stereo not shown) [Example 211] | 100% | 100% | 100% | 100% | 95% | 100% | 80% | 4.67 | 100% | 100% | 100% | 100% | 100% | 100% and 98% | 100% | – | greater than 95% | – | –
11 | CCOC(c1ccc(Cl)cc1Cl)C(C)NC(=O)c1c(C(F)F)nn(C)c1F (mixture of isomers) [Example 83] | – | 100% | 98% | 100% | 90% | – | – | – | 100% | 100% | 100% | 100% | 100% | – | 100% | 100% | – | – | –
12 | CC(Cc1ccc(Cl)cc1Cl)NC(=S)c1c(C(F)F)nn(C)c1F (stereo not shown) [Example 70] | – | 100% | 100% | 95% | 78% | 75% | – | 4.16 | 98% | – | 100% | 100% | 100% | – | 100% | 92% | – | – | –
13 | Cn1nc(C(F)F)c(C(=O)N(C[Si](C)(C)c2cc(Cl)cc(Cl)c2)C2CC2)c1F [Example 242] | 83% | 100% | 100% | 100% | 100% | 100% | 99% | 4.78 | – | 100% | 100% | 100% | 100% | 100% | 100% | – | – | 100% | total protection

Source: US9232799B2, “N-[(het)arylethyl)] pyrazole(thio)carboxamides and their heterosubstituted analogues” (BAYER INTELLECTUAL PROPERTY GMBH, priority 2010, dated 2016)
